compound: CN1CCN(CC1)C2=CC(=C(C=C2)NC3=NC(=C(S3)C(=O)C4=C(C=CC=C4Cl)Cl)N)OC [XMD14-99] + Nc1ncn([C@H]2C[C@H](O)[C@@H](CO)O2)c(=O)n1 [Decitabine] (partner 2 µM); experiment: relative viability (nuclei count vs DMSO), 5 days (fraction); higher = more cells survive; details: first compound 0.08 µM
How it was run: (§1)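 Lung cancer cell lines were pin-tool dosed in 1536-well plates on the day after seeding, with either a lone drug or a fixed anchor-drug dose plus five library-drug doses (not always all listed) in √10 steps. Nuclei were counted on 4× images after 5 days. Relative viability is the ratio of treated-well to vehicle-well nuclei counts, with each value a median of duplicate plates.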

Point of comparison: NCI-H358, relative viability 0.231. Against it:
- NCI-H522 — higher, 0.703
- NCI-H838 — higher, 0.477
- NCI-H1650 — higher, 0.393
- NCI-H2009 — higher, 0.342
- NCI-H1993 — higher, 0.561
- LK-2 — higher, 0.258
- NCI-H2342 — higher, 0.724
- SK-MES-1 — higher, 0.421
- NCI-H2170 — higher, 0.49
- A549 — higher, 0.284
- SW 900 — higher, 0.413
- NCI-H1648 — higher, 0.47
- NCI-H1395 — higher, 0.696
- NCI-H1793 — higher, 0.502
- NCI-H1944 — higher, 0.48
- ABC-1 — higher, 1.1

same assay, conditions: first compound 0.8 µM

Point of comparison: SW 900, relative viability 0.443. Against it:
- NCI-H522 — higher, 0.648
- NCI-H838 — higher, 0.452
- NCI-H1650 — lower, 0.418
- NCI-H2009 — lower, 0.343
- NCI-H1993 — higher, 0.603
- LK-2 — lower, 0.297
- NCI-H2342 — higher, 0.739
- SK-MES-1 — lower, 0.389
- NCI-H2170 — lower, 0.423
- A549 — lower, 0.271
- NCI-H1648 — higher, 0.501
- NCI-H1395 — higher, 0.7
- NCI-H1793 — higher, 0.521
- NCI-H1944 — higher, 0.458
- ABC-1 — higher, 1.05
- NCI-H358 — lower, 0.187

same assay, conditions: first compound 2.53 µM

Point of comparison: NCI-H1993, relative viability 0.587. Against it:
- NCI-H522 — lower, 0.554
- NCI-H838 — lower, 0.426
- NCI-H1650 — lower, 0.41
- NCI-H2009 — lower, 0.378
- LK-2 — lower, 0.328
- NCI-H2342 — higher, 0.765
- SK-MES-1 — lower, 0.451
- NCI-H2170 — lower, 0.444
- A549 — lower, 0.203
- SW 900 — lower, 0.386
- NCI-H1648 — lower, 0.479
- NCI-H1395 — higher, 0.712
- NCI-H1793 — lower, 0.473
- NCI-H1944 — lower, 0.414
- ABC-1 — higher, 0.679
- NCI-H358 — lower, 0.203

same assay, conditions: first compound 8 µM

Point of comparison: NCI-H1650, relative viability 0.338. Against it:
- NCI-H522 — higher, 0.672
- NCI-H838 — higher, 0.436
- NCI-H2009 — higher, 0.371
- NCI-H1993 — higher, 0.622
- LK-2 — lower, 0.21
- NCI-H2342 — higher, 0.638
- SK-MES-1 — lower, 0.336
- NCI-H2170 — higher, 0.395
- A549 — lower, 0.229
- SW 900 — higher, 0.419
- NCI-H1648 — higher, 0.455
- NCI-H1395 — higher, 0.653
- NCI-H1793 — higher, 0.427
- NCI-H1944 — higher, 0.372
- ABC-1 — higher, 0.935
- NCI-H358 — lower, 0.174

compound: N[C@@H]1CCCN(c2c(/C=C3\SC(=O)NC3=O)cccc2-c2ccccc2)C1 [AZD1208] + C[C@@H](Oc1cc(-c2cnn(C3CCNCC3)c2)cnc1N)c1c(Cl)ccc(F)c1Cl [Crizotinib] (partner 1 µM); experiment: as above; details: first compound 0.08 µM
How it was run: as §1

Point of comparison: CAL-12T, relative viability 0.745. Against it:
- NCI-H838 — higher, 0.967
- NCI-H1650 — higher, 0.954
- EBC-1 — lower, 0.19
- NCI-H1703 — lower, 0.365
- NCI-H2009 — higher, 1.07
- NCI-H2228 — lower, 0.327
- Calu-6 — lower, 0.615
- LK-2 — lower, 0.28
- SK-MES-1 — higher, 1.07
- IA-LM — higher, 0.827
- NCI-H2170 — higher, 1.18
- A549 — higher, 0.819
- NCI-H1299 — higher, 0.958
- NCI-H1563 — higher, 0.877
- NCI-H1944 — higher, 1.14
- ABC-1 — higher, 1.03
- NCI-H358 — lower, 0.537

same assay, conditions: first compound 0.253 µM

Point of comparison: NCI-H1299, relative viability 1. Against it:
- NCI-H838 — lower, 0.806
- NCI-H1650 — lower, 0.972
- EBC-1 — lower, 0.171
- NCI-H1703 — lower, 0.53
- NCI-H2009 — higher, 1.14
- NCI-H1993 — lower, 0.678
- NCI-H2228 — lower, 0.501
- Calu-6 — lower, 0.952
- LK-2 — lower, 0.211
- SK-MES-1 — lower, 0.944
- IA-LM — lower, 0.724
- NCI-H2170 — higher, 1.2
- A549 — lower, 0.847
- CAL-12T — lower, 0.838
- NCI-H1563 — lower, 0.81
- NCI-H1944 — higher, 1.16
- ABC-1 — higher, 1.23
- NCI-H358 — lower, 0.559

same assay, conditions: first compound 0.8 µM

Point of comparison: EBC-1, relative viability 0.174. Against it:
- NCI-H838 — higher, 0.892
- NCI-H1650 — higher, 1.04
- NCI-H1703 — higher, 0.579
- NCI-H2009 — higher, 0.972
- NCI-H1993 — higher, 0.759
- NCI-H2228 — higher, 0.399
- Calu-6 — higher, 0.672
- LK-2 — higher, 0.212
- SK-MES-1 — higher, 0.909
- IA-LM — higher, 0.797
- NCI-H2170 — higher, 1.01
- A549 — higher, 0.54
- NCI-H1299 — higher, 0.933
- CAL-12T — higher, 0.718
- NCI-H1563 — higher, 0.928
- NCI-H1944 — higher, 0.985
- ABC-1 — higher, 1.11
- NCI-H358 — higher, 0.499

same assay, conditions: first compound 2.53 µM

Point of comparison: NCI-H2009, relative viability 1.06. Against it:
- NCI-H838 — lower, 0.843
- NCI-H1650 — lower, 0.921
- EBC-1 — lower, 0.165
- NCI-H1703 — lower, 0.594
- NCI-H1993 — lower, 0.735
- Calu-6 — lower, 0.711
- LK-2 — lower, 0.275
- SK-MES-1 — lower, 0.974
- IA-LM — lower, 0.669
- NCI-H2170 — higher, 1.12
- A549 — lower, 0.661
- NCI-H1299 — lower, 0.969
- CAL-12T — lower, 0.85
- NCI-H1563 — lower, 0.924
- NCI-H1944 — lower, 1.01

Reference: the supplement of paper PMC10307832
